# Assay results: patent US5965537A, “Dolastatin 15 derivatives with carbonyl and heterocyclic functionalities at the C-terminus” (BASF Aktiengesellschaft, priority 1997, dated 1999)
# Test system: HT-29 colon carcinoma cells
# Assay: Cytotoxicity, microculture tetrazolium assay (MTT), HT-29 cell system
# Type: cell-based
# Conditions: 48 hours incubation, T/C of 50% growth inhibition
# Procedure: Cytotoxicity was measured using standard methodology for adherent cell lines, such as the microculture tetrazolium assay (MTT). Details of this assay have been published (Alley, M. C., et al., Cancer Research, 48: 589-601,(1988)). Exponentially growing cultures of HT-29 colon carcinoma cells were used to make microtiter plate cultures. Cells were seeded at 5000-20,000 cells per well in 96-well plates (in […] of media), and grown overnight at 37° C. Test compounds were added, in 10-fold dilutions varying from 10^-4 M to 10^-10 M. Cells were then incubated for 48 hours. To determine the number of viable cells in each well, the MTT dye was added ([…] of a 3 mg/ml solution of 3-(4,5-dimethylthiazol-2-yl)-2,5-diphenyltetrazolium bromide in saline). This mixture was incubated at 37° C. for 5 hours, and then […] of 25% SDS, pH 2, was added to each well. After an overnight incubation, the absorbance of each well at 550 nm was read using an ELISA reader. The values for the mean ±SD of data from replicated wells were calculated, using the formula % T/C (% viable cells treated/control). The concentration of test compound which gives a T/C of 50% growth inhibition was designated as the IC50.
# Table 9, below, presents the IC50 values determined in the HT-29 cell system: […]
row,Compound,IC50 [nM]
1,"CCCCC(=O)[C@@H]1CCCN1C(=O)[C@@H]1CCCN1C(=O)[C@H](C(C)C)N(C)C(=O)[C@@H](NC(=O)[C@H](C(C)C)N(C)C)C(C)C [Compound I-5, (S)-(Me2 Val-Val-MeVal-Pro-pyrrolidin-2-yl)butylketone]",> 1000
2,"COCC(=O)[C@@H]1CCCN1C(=O)[C@@H]1CCCN1C(=O)[C@H](C(C)C)N(C)C(=O)[C@@H](NC(=O)[C@H](C(C)C)N(C)C)C(C)C [Compound I-12, (S)-(Me2 Val-Val-MeVal-Pro-pyrrolidin-2-yl)methoxy-methylketone]",400
3,2-[(S)-(Me2 Val-Val-MeVal-Pro-pyrorolidin-2-yl)]-5-phenyloxazole [III-12],900
4,(S)-(Me2Val-Val-MeVal-Pro-pyrrolidin-2-yl)-trifluoromethyl-ketone [Compound I-54],> 1000
5,"2-[(S)-(Me2 Val-Val-MeVal-Pro-pyrrolidin-2-yl)]-3,4-dimethyl-thiazole [III-28]",400
6,"CC(C)[C@H](NC(=O)[C@H](C(C)C)N(C)C)C(=O)N(C)[C@H](C(=O)N1CCC[C@H]1C(=O)N1CCC[C@H]1C(=O)c1ccc(F)cc1)C(C)C [Compound I-32, (S)-(Me2Val-Val-MeVal-Pro-pyrrolidin-2-yl)-(4-fluorophenyl) ketone]",> 1000
7,"CC(=O)[C@@H]1CCCN1C(=O)[C@@H]1CCCN1C(=O)[C@H](C(C)C)N(C)C(=O)[C@@H](NC(=O)[C@H](C(C)C)N(C)C)C(C)C [Compound I-1, (S)-(Me2 Val-Val-MeVal-Pro-pyrrolidin-2-yl)-methylketone]",> 1000
8,"COc1ccc(C(=O)[C@@H]2CCCN2C(=O)[C@@H]2CCCN2C(=O)[C@H](C(C)C)N(C)C(=O)[C@@H](NC(=O)[C@H](C(C)C)N(C)C)C(C)C)cc1 [Compound I-22, (S)-(Me2 Val-Val-MeVal-Pro-pyrrolidin-2-yl)-(4-methoxyphenyl) ketone]",> 1000

# Test system: P388 lymphocytic leukemia (PS system) cell line
# Assay: not given
# Conditions: cited from earlier work
row,Compound,inhibition of growth of P388 lymphocytic leukemia cell line
1,Dolastatin 15,markedly inhibits the growth

# Test system: not given
# Assay: not given
# Conditions: synthetic Dolastatin 15; cited from earlier work
row,Compound,solubility in aqueous systems
1,Dolastatin 15,poor solubility in aqueous systems
